Results as given in patent publication US11752149B2, “Muscarinic acetylcholine M1 receptor antagonists” (Pipeline Therapeutics, Inc., priority 2019, dated 2023).
pIC50: −log10 of the molar value. Read-outs that look alike come from different tables or passages of the source.

Key:
Assay type in all cases: cell-based
human M4 receptor = human M4 receptor (Homo sapiens (Human), UniProt P08173); assay: Aequorin calcium flux assay, reversal of EC80 acetylcholine response, M4
Description: (§1) CHO-K1 cells stably expressing human M1 receptor with aequorin (Perkin Elmer) were grown in F12 media (Gibco) containing 10% FBS (ATCC), 0.4 mg/mL geneticin (Sigma-Aldrich) and 0.25 mg/mL Zeocin (Invitrogen). Cells were grown as per the manufacturer's protocol. For compound testing, cells were grown to confluency and detached gently with Accutase (Sigma-Aldrich) followed by centrifugation for 5 min at 150×g. Cells were then re-suspended in assay buffer (i.e. DMEM/F-12 HEPES without phenol red (Invitrogen) with 0.1% BSA (Sigma-Aldrich)) at a density of 5×10^6 cells/ml. Under sterile conditions, 5 μM coelenterazine (Invitrogen) was added to the cells, mixed, then incubated at room temperature protected from light, with gentle agitation, for 4 h.
(§2) Primary compound plates were prepared in 100% DMSO in opaque 96-well plates (VWR) and serially diluted in half log increments. Secondary compound plates were prepared at 3× concentration in assay buffer. Compounds were added to white, clear bottom tissue culture treated 96-well plates (Fisher Scientific). Coelenterazine-loaded cells were then added at 5×10^5 cells/well.
(§3) Compounds and cells were incubated at room temperature for 30 min in the dark. Acetylcholine at the EC80 concentration was added and calcium flux measured using a FlexStation 3 (Molecular Devices). Sigmoidal dose-response curves were generated by measuring luminescence over 40 sec and calculating the area under the curve. Dose response curves and IC50 values were generated using Prism (GraphPad). Compounds were tested at a final concentration range of 100 pM to 10 μM in 0.1% DMSO.
(§4) CHO-K1 cells stably expressing human M2, M3 and M4 receptors, respectively, with aequorin (Perkin Elmer) were used to assess a test compound's ability to dose-dependently reverse the EC80 acetylcholine response. The IC50 of the compounds was calculated from the dose response curve.

human M2 receptor = human M2 receptor (Homo sapiens (Human), UniProt P08172); assay: Aequorin calcium flux assay, reversal of EC80 acetylcholine response, M2
Sequence of human M2 receptor (P08172 whole entry): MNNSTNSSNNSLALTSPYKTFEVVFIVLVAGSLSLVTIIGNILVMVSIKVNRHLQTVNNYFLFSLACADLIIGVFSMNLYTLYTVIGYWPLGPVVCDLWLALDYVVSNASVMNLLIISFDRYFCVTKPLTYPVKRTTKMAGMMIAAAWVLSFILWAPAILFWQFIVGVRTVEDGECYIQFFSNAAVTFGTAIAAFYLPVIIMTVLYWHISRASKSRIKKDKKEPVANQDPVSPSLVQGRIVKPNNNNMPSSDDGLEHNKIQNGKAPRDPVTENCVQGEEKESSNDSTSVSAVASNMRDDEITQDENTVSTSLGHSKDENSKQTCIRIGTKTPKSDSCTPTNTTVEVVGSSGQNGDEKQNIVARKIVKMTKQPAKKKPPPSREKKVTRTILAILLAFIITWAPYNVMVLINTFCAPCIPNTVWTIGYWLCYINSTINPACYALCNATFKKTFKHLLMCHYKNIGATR
Description: as §1, §2, §3, §4

human M1 receptor = human M1 receptor (Homo sapiens (Human), UniProt P11229); assay: In vitro functional assay of muscarinic acetylcholine receptor activity, aequorin calcium flux, reversal of EC80 acetylcholine
Sequence of human M1 receptor (P11229 whole entry): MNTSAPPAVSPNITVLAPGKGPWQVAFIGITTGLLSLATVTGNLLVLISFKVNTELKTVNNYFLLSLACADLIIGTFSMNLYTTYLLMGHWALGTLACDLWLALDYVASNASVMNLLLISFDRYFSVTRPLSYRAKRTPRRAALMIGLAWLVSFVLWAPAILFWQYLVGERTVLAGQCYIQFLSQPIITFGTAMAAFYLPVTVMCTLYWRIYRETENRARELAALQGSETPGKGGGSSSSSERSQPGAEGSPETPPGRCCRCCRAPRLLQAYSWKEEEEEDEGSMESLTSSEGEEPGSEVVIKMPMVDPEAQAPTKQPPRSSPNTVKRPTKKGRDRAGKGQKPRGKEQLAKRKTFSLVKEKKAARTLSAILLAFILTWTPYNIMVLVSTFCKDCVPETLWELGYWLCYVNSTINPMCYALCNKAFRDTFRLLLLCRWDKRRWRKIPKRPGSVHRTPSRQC
Description: as §1, §2, §3

human M3 receptor = human M3 receptor (Homo sapiens (Human), UniProt P20309); assay: Aequorin calcium flux assay, reversal of EC80 acetylcholine response, M3
Sequence of human M3 receptor (P20309 whole entry, looked up): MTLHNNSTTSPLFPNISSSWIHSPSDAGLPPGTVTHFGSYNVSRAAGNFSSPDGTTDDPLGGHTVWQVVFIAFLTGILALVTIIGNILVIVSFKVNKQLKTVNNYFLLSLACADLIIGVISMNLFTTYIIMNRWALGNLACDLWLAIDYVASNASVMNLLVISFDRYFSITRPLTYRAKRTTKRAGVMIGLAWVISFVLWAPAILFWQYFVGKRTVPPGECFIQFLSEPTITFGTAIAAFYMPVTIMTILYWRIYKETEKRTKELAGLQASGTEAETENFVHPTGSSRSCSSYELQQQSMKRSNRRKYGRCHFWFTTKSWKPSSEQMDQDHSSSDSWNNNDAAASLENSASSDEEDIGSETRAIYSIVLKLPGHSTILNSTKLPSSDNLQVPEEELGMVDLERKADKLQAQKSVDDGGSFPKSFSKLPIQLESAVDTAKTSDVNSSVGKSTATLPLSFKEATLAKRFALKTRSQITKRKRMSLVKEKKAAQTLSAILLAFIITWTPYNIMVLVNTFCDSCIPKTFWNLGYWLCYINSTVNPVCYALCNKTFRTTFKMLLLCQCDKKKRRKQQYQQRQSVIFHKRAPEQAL
Description: as §1, §2, §3, §4

[1] = CHO-K1 cells expressing human M2 receptor with aequorin, acetylcholine at EC80, read-out: M2 IC50
[2] = CHO-K1 cells expressing human M1 receptor with aequorin, acetylcholine at EC80, read-out: M1 IC50

Sequence of human M4 receptor (P08173 whole entry): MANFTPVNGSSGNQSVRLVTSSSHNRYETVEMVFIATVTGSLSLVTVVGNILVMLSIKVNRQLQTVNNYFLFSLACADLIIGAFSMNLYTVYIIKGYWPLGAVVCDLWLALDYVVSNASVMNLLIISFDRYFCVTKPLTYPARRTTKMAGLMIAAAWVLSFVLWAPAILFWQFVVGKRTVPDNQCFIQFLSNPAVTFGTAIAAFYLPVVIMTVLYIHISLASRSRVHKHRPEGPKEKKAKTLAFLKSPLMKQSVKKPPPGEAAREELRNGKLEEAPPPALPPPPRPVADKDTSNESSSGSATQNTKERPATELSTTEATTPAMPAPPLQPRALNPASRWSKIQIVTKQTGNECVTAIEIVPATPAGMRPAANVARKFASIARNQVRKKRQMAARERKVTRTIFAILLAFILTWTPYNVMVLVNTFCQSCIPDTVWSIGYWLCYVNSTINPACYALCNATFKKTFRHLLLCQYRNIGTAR

| SMILES | pIC50 (human M4 receptor) | pIC50 (human M2 receptor; [1]) | pIC50 (human M1 receptor; [2]) | pIC50 (human M3 receptor) | pIC50 (human M1 receptor) | further results |
| --- | --- | --- | --- | --- | --- | --- |
| Cc1c(F)cccc1S(=O)(=O)CCC(=O)N1CC2CCC(C1)N2c1ccc(C#N)cn1 [Example 24, 6-{3-[3-(3-fluoro-2-methylbenzenesulfonyl)propanoyl]-3,8-diazabicyclo [3.2.1]octan-8-yl}pyridine-3-carbonitrile] | 6.00 to 7.00 | 5.00 to 6.00 | > 8.00 | 6.00 to 7.00 | – | – |
| N#Cc1ccc(N2C3CCC2CN(C(=O)CCS(=O)(=O)c2ccccc2[C@H]2CC2(F)F)C3)nc1 (single isomer, unassigned) [Example 35] | – | – | > 8.00 | – | – | pIC50 (human M4 receptor; CHO-K1 cells expressing human M4 receptor with aequorin, acetylcholine at EC80, read-out: M4 IC50): 7.00 to 8.00; pIC50 (human M2 receptor): 7.00 to 8.00; pIC50 (human M3 receptor; CHO-K1 cells expressing human M3 receptor with aequorin, acetylcholine at EC80, read-out: M3 IC50): 6.00 to 7.00 |
| COc1cc(S(=O)(=O)CCC(=O)N2CC3CCC(C2)N3c2ccc(C#N)cn2)ccc1F [Example 3, 6-(3-(3-((4-fluoro-3-methoxyphenyl)sulfonyl)propanoyl)-3,8-diazabicyclo[3.2.1]octan-8-yl)nicotinonitrile] | 6.00 to 7.00 | < 5.00 | > 8.00 | 6.00 to 7.00 | – | – |
| COc1cccc(S(=O)(=O)CCC(=O)N2CC3CCC(C2)N3c2ccc(C#N)cn2)c1 [Example 2, 6-(3-(3-((3-methoxyphenyl)sulfonyl)propanoyl)-3,8-diazabicyclo[3.2.1]octan-8-yl)nicotinonitrile] | 6.00 to 7.00 | < 5.00 | – | 6.00 to 7.00 | 7.00 to 8.00 | – |
| N#Cc1ccc(N2C3CCC2CN(C(=O)CCS(=O)(=O)c2cccc(F)c2C2CC2)C3)nc1 [Example 4, 6-(3-(3-((2-cyclopropyl-3-fluorophenyl)sulfonyl)-propanoyl)-3,8-diazabicyclo[3.2.1]octan-8-yl)nicotinonitrile] | – | – | > 8.00 | – | – | – |
| N#Cc1ccc(N2C3CCC2CN(C(=O)CCS(=O)(=O)c2ccccc2[C@@H]2CC2(F)F)C3)nc1 (single isomer, unassigned) [Example 36] | – | – | – | – | 6.00 to 7.00 | – |
| N#Cc1ccc(N2C3CCC2CN(C(=O)CCS(=O)(=O)c2cc(F)cc(F)c2)C3)nc1 [Example 8, 6-{3-[3-(3,5-difluorobenzenesulfonyl)propanoyl]-3,8-diazabicyclo [3.2.1]octan-8-yl}pyridine-3-carbonitrile] | – | – | – | – | 7.00 to 8.00 | – |
| N#Cc1ccc(N2C3CCC2CN(C(=O)CCS(=O)(=O)c2ccccc2OC(F)(F)F)C3)nc1 [Example 30, 6-(3-(3-((2-(trifluoromethoxy)phenyl)sulfonyl)propanoyl)-3,8-diazabicyclo-[3.2.1]octan-8-yl)nicotinonitrile] | – | – | – | – | 6.00 to 7.00 | – |
| N#Cc1ccc(N2C3CCC2CN(C(=O)CCS(=O)(=O)c2ncccc2C2CC2)C3)nc1 [Example 23, 6-(3-{3-[(3-cyclopropylpyridin-2-yl)sulfonyl]propanoyl}-3,8-diazabicyclo[3.2.1]octan-8-yl)pyridine-3-carbonitrile] | – | – | – | – | 6.00 to 7.00 | – |
| COc1cc(S(=O)(=O)CCC(=O)N2CC3CCC(C2)N3c2ccc(C#N)cn2)ccn1 [Example 15, 6-(3-{3-[(2-methoxypyridin-4-yl)sulfonyl]propanoyl}-3,8-diazabicyclo[3.2.1]octan-8-yl)pyridine-3-carbonitrile] | – | – | – | – | 7.00 to 8.00 | – |
